We go through 22 molecules from ChEMBL document CHEMBL1909046, “DrugMatrix in vitro pharmacology data”.

In one experiment the target is Adenosine receptor A2a (Homo sapiens, UniProt P29274). The experiment is described as follows: DRUGMATRIX: Adenosine A2A radioligand binding (ligand: […]). In kind it is cell membranes, HEK293, Membrane. Conditions: hek293; Not Active = under 50% inhibition at 10 µM.
Another experiment concerns the target T1, Progesterone receptor (Bos taurus, UniProt Q690N0).
T1 sequence (Q690N0 whole entry): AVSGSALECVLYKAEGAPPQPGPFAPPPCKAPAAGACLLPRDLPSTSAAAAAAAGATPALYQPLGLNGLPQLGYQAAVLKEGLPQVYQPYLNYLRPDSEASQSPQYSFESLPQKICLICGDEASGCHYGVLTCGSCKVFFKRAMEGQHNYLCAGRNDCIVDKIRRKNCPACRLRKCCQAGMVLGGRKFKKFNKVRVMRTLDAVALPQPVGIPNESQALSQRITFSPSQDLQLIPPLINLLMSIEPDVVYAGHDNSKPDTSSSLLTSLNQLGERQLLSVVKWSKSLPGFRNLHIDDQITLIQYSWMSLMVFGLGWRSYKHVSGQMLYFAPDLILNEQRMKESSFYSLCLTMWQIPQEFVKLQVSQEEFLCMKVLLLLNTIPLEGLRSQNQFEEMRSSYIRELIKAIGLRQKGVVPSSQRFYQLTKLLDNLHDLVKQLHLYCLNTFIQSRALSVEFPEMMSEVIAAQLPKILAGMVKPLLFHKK
Put plainly: DRUGMATRIX: Progesterone radioligand binding (ligand: [3H] R-5020). Conditions: Not Active = under 50% inhibition at 10 µM. In kind it is tissue-based, Uterus.

Experiment [1] concerns the target Sigma non-opioid intracellular receptor 1 (Homo sapiens, UniProt Q99720). The experiment is described as follows: DRUGMATRIX: Sigma1 radioligand binding (ligand: [3H] Haloperidol). In kind it is cell membranes, Jurkat, Membrane. Conditions: Not Active = under 50% inhibition at 10 µM.
Experiment [2] in a line: DRUGMATRIX: ATPase, Na+/K+ enzyme inhibition (substrate: ATP). In kind it is tissue-based, Sus scrofa, Heart. The conditions noted are these: Not Active = under 50% inhibition at 10 µM.
Experiment [3] concerns the target Beta-1 adrenergic receptor (Homo sapiens, UniProt P08588). Put plainly: DRUGMATRIX: Adrenergic beta1 radioligand binding (ligand: [125I] Cyanopindolol). Conditions: Not Active = under 50% inhibition at 10 µM. In kind it is cell membranes, CHO-K1, Membrane.

Beta-1 adrenergic receptor, sequence (P08588 whole entry): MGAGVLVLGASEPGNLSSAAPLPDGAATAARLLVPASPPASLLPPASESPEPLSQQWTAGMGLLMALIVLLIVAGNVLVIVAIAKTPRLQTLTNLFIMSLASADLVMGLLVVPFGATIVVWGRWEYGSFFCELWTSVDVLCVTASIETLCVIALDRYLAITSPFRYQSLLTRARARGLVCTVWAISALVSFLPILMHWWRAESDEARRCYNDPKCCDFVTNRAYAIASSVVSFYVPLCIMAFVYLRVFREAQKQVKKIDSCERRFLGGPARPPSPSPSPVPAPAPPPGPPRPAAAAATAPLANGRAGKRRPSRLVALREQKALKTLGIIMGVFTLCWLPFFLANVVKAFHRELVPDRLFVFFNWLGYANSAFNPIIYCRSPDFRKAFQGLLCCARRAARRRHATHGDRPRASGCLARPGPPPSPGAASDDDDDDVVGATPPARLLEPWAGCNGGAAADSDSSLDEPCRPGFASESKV
Sigma non-opioid intracellular receptor 1, sequence (Q99720 whole entry): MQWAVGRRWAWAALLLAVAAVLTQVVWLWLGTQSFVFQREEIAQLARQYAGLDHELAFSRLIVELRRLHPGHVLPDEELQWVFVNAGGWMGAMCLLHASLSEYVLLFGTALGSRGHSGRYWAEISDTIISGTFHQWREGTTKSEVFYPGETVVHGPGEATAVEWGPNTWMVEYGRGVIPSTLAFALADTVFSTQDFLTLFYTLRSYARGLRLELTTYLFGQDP
Adenosine receptor A2a, sequence (P29274 whole entry): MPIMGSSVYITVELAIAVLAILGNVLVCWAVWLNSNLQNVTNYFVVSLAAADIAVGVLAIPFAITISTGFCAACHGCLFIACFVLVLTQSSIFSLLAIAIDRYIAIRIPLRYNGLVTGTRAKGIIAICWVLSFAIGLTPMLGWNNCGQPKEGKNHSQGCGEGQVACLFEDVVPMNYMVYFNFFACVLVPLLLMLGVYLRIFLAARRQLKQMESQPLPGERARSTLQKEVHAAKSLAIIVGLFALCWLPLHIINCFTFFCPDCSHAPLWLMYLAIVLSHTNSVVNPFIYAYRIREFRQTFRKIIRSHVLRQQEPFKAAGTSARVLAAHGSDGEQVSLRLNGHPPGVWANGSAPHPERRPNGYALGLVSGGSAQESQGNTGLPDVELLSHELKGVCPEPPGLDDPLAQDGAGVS

As usually defined, the IC50 is the midpoint of a concentration-inhibition curve. One may read the Ki as the equilibrium dissociation constant of an inhibitor or competing ligand from its target. Regarding `C[C@@H](CO)NC(=O)[C@@H]1C=C2c3cccc4[nH]cc(c34)C[C@H]2N(C)C1` [ERGONOVINE], the IC50 entry (on Adenosine receptor A2a; at Progesterone receptor; in experiment [1] (jurkat); in experiment [2]; in experiment [3] (cho-k1)) was “Not Active” in each case. The inhibitory constant (Ki) entry in experiment [2] is reported as “Not Active”.

For the molecule `Nc1ccc2c3c(cccc13)C(=O)NC2=O`, the IC50 result (on Adenosine receptor A2a; on Progesterone receptor; in experiment [1] (jurkat); in experiment [2]; in experiment [3] (cho-k1)) was “Not Active” each time. For the same molecule, the Ki entry in experiment [2] is reported as “Not Active”.

In the case of `CCN(CC)CCOCCC1=CCC2CC1C2(C)C` (stereo not drawn) [MYRTECAINE], the IC50 result (at Adenosine receptor A2a; at Progesterone receptor; in experiment [1] (jurkat); in experiment [2]; in experiment [3] (cho-k1)) was “Not Active” each time. Moreover, the Ki entry in experiment [2] is given as “Not Active”.

For the molecule `CC(C)=CCC/C(C)=C/CO` [GERANIOL], the half-maximal inhibitory concentration (IC50) result (at Adenosine receptor A2a; on Progesterone receptor; in experiment [1] (jurkat); in experiment [2]; in experiment [3] (cho-k1)) was “Not Active” each time. For the same molecule, the Ki entry in experiment [2] was “Not Active”.

In the case of `CCCOc1ccc(C(=O)OCCN(CC)CC)cc1N` [PROPARACAINE], the concentration for half-maximal inhibition (IC50) result at Adenosine receptor A2a is “Not Active”; on Progesterone receptor, “Not Active”; in experiment [1] (read-out: IC50) it was 238 nM; in experiment [2], “Not Active”; in experiment [3] (cho-k1), “Not Active”. Also, the Ki was 100 nM in experiment [1] (read-out: Ki) and “Not Active” in experiment [2].

Take `O=C(O)c1cccnc1Nc1cccc(C(F)(F)F)c1` [NIFLUMIC ACID]: the IC50 entry (at Adenosine receptor A2a; on Progesterone receptor; in experiment [1] (jurkat); in experiment [2]; in experiment [3] (cho-k1)) was “Not Active” throughout. Besides, the Ki entry in experiment [2] was “Not Active”.

Turning to `CN1[C@@H]2CC[C@H]1C[C@@H](OC(=O)C(CO)c1ccccc1)C2` (stereo partly drawn) [ATROPINE], the IC50 entry (at Adenosine receptor A2a; at Progesterone receptor; in experiment [1] (jurkat); in experiment [2]; in experiment [3] (cho-k1)) was “Not Active” throughout. Moreover, the Ki result in experiment [2] is given as “Not Active”.

For `C#CC1(O)CC[C@H]2[C@@H]3CCC4=CC(=O)CC[C@@H]4[C@H]3CC[C@@]21CC` (stereo partly drawn) [NORGESTREL], the IC50 result at Adenosine receptor A2a is “Not Active”; on Progesterone receptor (read-out: IC50), 3.51 nM; in experiment [1] (jurkat), “Not Active”; in experiment [2], “Not Active”; in experiment [3] (cho-k1), “Not Active”. Besides, the Ki on Progesterone receptor (read-out: Ki) was 0.458 nM; in experiment [2] it was “Not Active”.

As for `CCCN(CCC)S(=O)(=O)c1ccc(C(=O)O)cc1` [PROBENECID], the IC50 result (at Adenosine receptor A2a; on Progesterone receptor; in experiment [1] (jurkat); in experiment [2]; in experiment [3] (cho-k1)) was “Not Active” in each case. For the same molecule, the Ki entry in experiment [2] is on record as “Not Active”.

`O=C1CN=C(c2ccccc2Cl)c2cc([N+](=O)[O-])ccc2N1` [CLONAZEPAM]: the IC50 entry (at Adenosine receptor A2a; on Progesterone receptor; in experiment [1] (jurkat); in experiment [2]; in experiment [3] (cho-k1)) was “Not Active” in each case. Also, the Ki entry in experiment [2] is “Not Active”.

On to `CC(C(=O)O)c1cccc(Oc2ccccc2)c1` (stereo not drawn) [FENOPROFEN], for which the IC50 result (on Adenosine receptor A2a; on Progesterone receptor; in experiment [1] (jurkat); in experiment [2]; in experiment [3] (cho-k1)) was “Not Active” each time. Also, the Ki entry in experiment [2] was “Not Active”.

On to GENTAMICIN, for which the IC50 result (at Adenosine receptor A2a; on Progesterone receptor; in experiment [1] (jurkat); in experiment [2]; in experiment [3] (cho-k1)) was “Not Active” in each case. For the same molecule, the Ki entry (on Adenosine receptor A2a; at Progesterone receptor; in experiment [1] (jurkat); in experiment [2]; in experiment [3] (cho-k1)) was “Not Active” in each case.

In the case of `CC(=O)Oc1ccc(C(c2ccc(OC(C)=O)cc2)c2ccccn2)cc1` [BISACODYL], the IC50 result (on Adenosine receptor A2a; on Progesterone receptor; in experiment [1] (jurkat); in experiment [2]; in experiment [3] (cho-k1)) was “Not Active” each time. Further, in experiment [2], the Ki result is “Not Active”.

`C[C@@H]1O[C@@H](O[C@@H]2C=C3CC[C@@H]4[C@H](CC[C@]5(C)[C@@H](c6ccc(=O)oc6)CC[C@]45O)[C@@]3(C)CC2)[C@H](O)[C@H](O)[C@H]1O` [PROSCILLARIDIN]: the IC50 entry at Adenosine receptor A2a was “Not Active”; on Progesterone receptor it was “Not Active”; in experiment [1] (jurkat), “Not Active”; in experiment [2] (read-out: IC50), 88 nM; in experiment [3] (cho-k1), “Not Active”.

Turning to `C[C@@H]1C[C@H]2[C@@H]3CCC4=CC(=O)C=C[C@]4(C)[C@@]3(F)[C@@H](O)C[C@]2(C)[C@@]1(O)C(=O)CO` [DEXAMETHASONE], the IC50 entry was “Not Active” at Adenosine receptor A2a; 23300 nM at Progesterone receptor (read-out: IC50); “Not Active” in experiment [1] (jurkat); “Not Active” in experiment [2]; “Not Active” in experiment [3] (cho-k1). The Ki was 3040 nM on Progesterone receptor (read-out: Ki) and “Not Active” in experiment [2].

Consider `C[n+]1ccc(-c2cc[n+](C)cc2)cc1.[Cl-].[Cl-]` [PARAQUAT DICHLORIDE], for which the IC50 entry (on Adenosine receptor A2a; on Progesterone receptor; in experiment [1] (jurkat); in experiment [2]; in experiment [3] (cho-k1)) was “Not Active” throughout. Also, the Ki entry in experiment [2] is recorded as “Not Active”.

For `Cc1cc2c(OCC(CNC(C)(C)C)OC(=O)c3ccccc3)cccc2[nH]1` (stereo not drawn) [BOPINDOLOL], the IC50 result at Adenosine receptor A2a is “Not Active”; on Progesterone receptor it was “Not Active”; in experiment [1] (jurkat), “Not Active”; in experiment [2] it was “Not Active”; in experiment [3] (read-out: IC50), 47 nM. The results for the Ki result in experiment [2] and in experiment [3] (read-out: Ki) were “Not Active” and 27 nM, respectively.

As to `Nc1ccn([C@@H]2O[C@H](CO)[C@@H](O)C2(F)F)c(=O)n1` [GEMCITABINE], the IC50 result (on Adenosine receptor A2a; at Progesterone receptor; in experiment [1] (jurkat); in experiment [2]; in experiment [3] (cho-k1)) was “Not Active” throughout. Moreover, in experiment [2], the Ki entry is listed as “Not Active”.

In the case of `Nc1ccn([C@@H]2O[C@H](CO)[C@@H](O)[C@@H]2O)c(=O)n1` [CYTARABINE], the IC50 result (at Adenosine receptor A2a; on Progesterone receptor; in experiment [1] (jurkat); in experiment [2]; in experiment [3] (cho-k1)) was “Not Active” each time. The Ki entry in experiment [2] is listed as “Not Active”.

As to GADOPENTETATE DIMEGLUMINE, the IC50 entry (on Adenosine receptor A2a; on Progesterone receptor; in experiment [1] (jurkat); in experiment [2]; in experiment [3] (cho-k1)) was “Not Active” in each case. Further, the Ki entry (at Adenosine receptor A2a; at Progesterone receptor; in experiment [1] (jurkat); in experiment [2]; in experiment [3] (cho-k1)) was “Not Active” each time.

With `C=CCc1ccc(O)c(OC)c1` [EUGENOL], the IC50 entry (on Adenosine receptor A2a; on Progesterone receptor; in experiment [1] (jurkat); in experiment [2]; in experiment [3] (cho-k1)) was “Not Active” throughout. The Ki entry in experiment [2] was “Not Active”.

On to `CCn1cc(C(=O)O)c(=O)c2cnc(N3CCCC3)nc21` [PIROMIDIC ACID], for which the IC50 result (at Adenosine receptor A2a; at Progesterone receptor; in experiment [1] (jurkat); in experiment [2]; in experiment [3] (cho-k1)) was “Not Active” in each case. The Ki result in experiment [2] is reported as “Not Active”.
